Assay results: US9918972B2, “Treatment of leukemia with artemisinin derivatives and combinations with other antineoplastic agents” (UNIVERSITY OF MARYLAND, BALTIMORE, priority 2014, dated 2018)
Values joined by “and” are separate entries in the source; they are usually repeats but may differ in a detail not shown here. Equal entries are not always repeated. Marks after values point to notes of the source that are not given here.

Experiments:
KOPN8 = assay: Kinase inhibitor drug combination screen (MTS, Bliss-independence analysis)
Excerpt: (§1) Hits were ranked by the observed inhibition over the Bliss independence prediction.
(§2) Combinations with positive values for this Bliss difference were considered synergistic, values near zero, additive, and negative values, antagonistic.

MOLM14 = assay: as above
Excerpt: as §1, §2

[1] = system: MOLM14, Kasumi-1, KOPN8 and RCH-ACV leukemia cell lines; assay: Kinase inhibitor drug combination screen, summary over the four leukemia cell lines; details: for No. Cell Lines: cell lines synergistically inhibited (>10% over Bliss) by drug 1 combined with AS and/or ART-838
Excerpt: as §1, §2

[2] = KOPN8, Drug 2 = ART-838 at approximate IC50, 48 h
[3] = KOPN8, Drug 2 = AS at approximate IC50, 48 h
[4] = MOLM14, Drug 2 = AS at approximate IC50, 48 h
[5] = MOLM14, Drug 2 = ART-838 at approximate IC50, 48 h

Compound | fractional inhibition over Bliss prediction (KOPN8; [2]) | fractional inhibition over Bliss prediction (KOPN8; [3]) | fractional inhibition over Bliss prediction (MOLM14; [4]) | No. Cell Lines [1] | fractional inhibition over Bliss prediction (MOLM14; [5]) | synergy with AS or ART-838 ([1]; screens in four human leukemia cell lines)
Cc1ccc(F)c(NC(=O)Nc2ccc(-c3cccc4[nH]nc(N)c34)cc2)c1 [Linifanib] | 0.19 | 0.20 | – | – | – | –
COc1cc2nccc(Oc3ccc(NC(=O)Nc4cc(C)on4)c(Cl)c3)c2cc1OC [Tivozanib] | KOPN8 (0.22) | KOPN8 (0.11) | MOLM14 (0.20), | 2/4 | – | –
COc1ccc(COc2ccc(Cc3cnc(N)nc3N)cc2OC)cc1 [GW-2580] | KOPN8 (0.19) | KOPN8 (0.15) | 0.25 and 0.15 | 2/4 | MOLM14 (0.19), | –
Cn1cnc2c(F)c(Nc3ccc(Br)cc3Cl)c(C(=O)NOCCO)cc21 [Selumetinib] | KOPN8 (0.19) | – | – | 2/4 | MOLM14 (0.15), | –
ABT-263 | – | – | – | – | – | Particularly strong synergy
CC1(C)CNc2cc(NC(=O)c3cccnc3NCc3ccncc3)ccc21 [Motesanib] | 0.15 | 0.11 | – | – | – | –
CN1CCN(CCOc2cc(OC3CCOCC3)c3c(Nc4c(Cl)ccc5c4OCO5)ncnc3c2)CC1 [Saracatinib] | – | – | 0.33 | – | 0.21 | –
CS(=O)(=O)CCNCc1ccc(-c2ccc3ncnc(Nc4ccc(OCc5cccc(F)c5)c(Cl)c4)c3c2)o1 [Lapatinib] | – | – | – | 2/4** | – | –
Clc1ccc(Nc2nnc(Cc3ccncc3)c3ccccc23)cc1 [Vatalanib] | 0.12 | 0.15 | – | – | – | –
CCCCCCCCCCCCc1ccc(S(=O)(=O)Nc2nncs2)cc1 [PHT-427] | – | – | 0.26 | – | 0.20 | –
Nc1ncnc2c1c(-c1cccc(OCc3ccccc3)c1)cn2C1CC(CN2CCCC2)C1 (centres unmarked) [NVP-ADW742] | – | – | MOLM14 (0.20) | 2/4 | MOLM14 (0.17), | –
Cc1ccc(S(=O)(=O)OCC(=O)Nc2ccc(C(=O)O)c(O)c2)cc1 [S31-201] | KOPN8 (0.23) | KOPN8 (0.17) | MOLM14 (0.30), | 2/4 | MOLM14 (0.18), | –
O=C(O)c1ccc(Nc2ncc3c(n2)-c2ccc(Cl)cc2C(c2c(F)cccc2F)=NC3)cc1 [MLN8054] | KOPN8 (0.11) | – | – | 2/4 | MOLM14 (0.15), | –
Cc1ccc(Nc2nccc(N(C)c3ccc4c(C)n(C)nc4c3)n2)cc1S(N)(=O)=O [Pazopanib] | – | – | – | 3/4 | – | –
JAK Inhibitor I | – | – | 0.44 | – | 0.15 | –
CS(=O)(=O)N1CCN(Cc2cc3nc(-c4cccc5[nH]ncc45)nc(N4CCOCC4)c3s2)CC1 [Pictilisib] | 0.14 | 0.12 | – | – | – | –
CC(C)C[C@H](NC(=O)[C@H](Cc1ccccc1)NC(=O)c1cnccn1)B(O)O [Bortezomib] | – | – | – | 2/4 | – | –
NC(=O)c1ccc(-c2nc(-c3ccc4c(c3)OCO4)c(-c3ccccn3)[nH]2)cc1 [SB-431542] | – | – | 0.16 | – | 0.11 | –
C#Cc1cccc(Nc2ncnc3cc(OCCOC)c(OCCOC)cc23)c1 [Erlotinib] | – | – | – | 2/4 | – | –
CC(=O)Nc1cccc(-n2c(=O)n(C3CC3)c(=O)c3c(Nc4ccc(I)cc4F)n(C)c(=O)c(C)c32)c1 [Trametinib] | 0.20 | 0.20 | – | – | – | –
Cc1ccc(NC(=O)c2ccc(CN3CCN(C)CC3)cc2)cc1Nc1nccc(-c2cccnc2)n1 [Imatinib] | – | – | – | 2/4 | – | –
